Laboratory results from PubChem BioAssay (NCI).
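Cells were grown in 96-well plates and exposed to each compound for 48 hours at five concentrations; endpoints were interpolated linearly between bracketing concentrations, or set to the highest concentration if not reached. The concentration for full growth arrest is given as TGI.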

Columns and labels:
Assay in all cases: growth of human tumour cells (NCI), 48 h
MALME-3M melanoma = tested on: MALME-3M melanoma
786-0 renal = tested on: 786-0 renal
A549 NSCLC = tested on: A549 NSCLC
U251 CNS = tested on: U251 CNS
HS 578T breast = tested on: HS 578T breast
IGROV1 ovarian = tested on: IGROV1 ovarian
MCF7 breast = tested on: MCF7 breast
DU-145 prostate = tested on: DU-145 prostate
HCT-15 colon = tested on: HCT-15 colon
NCI-H226 lung = tested on: NCI-H226 lung
SNB-75 CNS = tested on: SNB-75 CNS
SK-MEL-5 melanoma = tested on: SK-MEL-5 melanoma
TK-10 renal = tested on: TK-10 renal
KM12 colon = tested on: KM12 colon
NCI-H23 lung = tested on: NCI-H23 lung
SN12C renal = tested on: SN12C renal
SF-295 CNS = tested on: SF-295 CNS
OVCAR-3 ovarian = tested on: OVCAR-3 ovarian
MOLT-4 leukemia = tested on: MOLT-4 leukemia
SW-620 colon = tested on: SW-620 colon
SF-268 CNS = tested on: SF-268 CNS
HCT-116 colon = tested on: HCT-116 colon
NCI-H460 lung = tested on: NCI-H460 lung
COLO 205 colon = tested on: COLO 205 colon
HOP-92 NSCLC = tested on: HOP-92 NSCLC
PC-3 prostate = tested on: PC-3 prostate
SK-MEL-2 melanoma = tested on: SK-MEL-2 melanoma
ACHN renal = tested on: ACHN renal
LOX IMVI melanoma = tested on: LOX IMVI melanoma
SK-OV-3 ovarian = tested on: SK-OV-3 ovarian
MDA-MB-231 breast = tested on: MDA-MB-231 breast
RPMI-8226 leukemia = tested on: RPMI-8226 leukemia
SF-539 CNS = tested on: SF-539 CNS
T-47D breast = tested on: T-47D breast
MDA-MB-435 = tested on: MDA-MB-435
HOP-62 NSCLC = tested on: HOP-62 NSCLC
SK-MEL-28 melanoma = tested on: SK-MEL-28 melanoma
K-562 leukemia = tested on: K-562 leukemia
OVCAR-5 ovarian = tested on: OVCAR-5 ovarian
UACC-257 melanoma = tested on: UACC-257 melanoma
NCI/ADR-RES ovarian = tested on: NCI/ADR-RES ovarian
UO-31 renal = tested on: UO-31 renal
HCC-2998 colon = tested on: HCC-2998 colon
CCRF-CEM leukemia = tested on: CCRF-CEM leukemia
HL-60(TB) leukemia = tested on: HL-60(TB) leukemia
EKVX NSCLC = tested on: EKVX NSCLC
OVCAR-8 ovarian = tested on: OVCAR-8 ovarian
CAKI-1 renal = tested on: CAKI-1 renal
OVCAR-4 ovarian = tested on: OVCAR-4 ovarian
MDA-N = tested on: MDA-N
SR leukemia = tested on: SR leukemia
UACC-62 melanoma = tested on: UACC-62 melanoma
HT29 colon = tested on: HT29 colon
M14 melanoma = tested on: M14 melanoma
NCI-H522 lung = tested on: NCI-H522 lung
A498 renal = tested on: A498 renal
SNB-19 CNS = tested on: SNB-19 CNS
RXF 393 renal = tested on: RXF 393 renal

Measured: TGI

COC(=O)C1(Cc2ccccc2)Cc2ccccc2C1=O (stereo not drawn)
51.1 µM: HL-60(TB) leukemia
44 µM: SK-MEL-5 melanoma
72.3 µM: NCI/ADR-RES ovarian
90.9 µM: MOLT-4 leukemia
94.6 µM: MDA-N
85.9 µM: U251 CNS
53.4 µM: MDA-MB-435
39.3 µM: MALME-3M melanoma
65.5 µM: SK-MEL-2 melanoma
78.3 µM: SR leukemia
not listed: NCI-H522 lung | A498 renal | SNB-19 CNS | RXF 393 renal
> 100 µM: all other assays above

CN1c2ccccc2C(=O)Nc2cnc(Cl)nc21
not listed: HS 578T breast | SF-268 CNS | NCI-H460 lung | SR leukemia
> 100 µM: all other assays above
